PMC4248674 (Arthritis & rheumatology (Hoboken, N.J.), 2014)
Square brackets hold non-standard residues; d marks the D form. Peptide text beside a SMILES is read from it. Cit = NC(=O)NCCC[C@H](N)C(=O)O

Target: HLA-DR0401 protein (Homo sapiens, UniProt P01903+P01911, A100K/A169T/F76Y/I96L/K127E/L162R/M171V/N62H/P40V/Q125Y/R42H/S133A/S149N/S66Y/V115G/V209L/W38E)
Assay: Peptide competition binding assay against biotinylated HA306–318 on HLA-DR0401

`CC[C@H](C)[C@H](NC(=O)[C@H](CCCNC(N)=O)NC(=O)[C@@H](N)CCCCN)C(=O)N[C@@H](C)C(=O)N[C@@H](CCCCN)C(=O)N[C@@H](C)C(=O)N[C@H](C(=O)N[C@@H](CC(N)=O)C(=O)N[C@@H](CCC(=O)O)C(=O)N[C@@H](CCCCN)C(=O)N[C@@H](CO)C(=O)N[C@@H](CS)C(=O)N[C@@H](CC(N)=O)C(=O)N[C@@H](CS)C(=O)N[C@@H](CC(C)C)C(=O)O)C(C)C` [Cit-α-enolase 4] (H-K[Cit]IAKAVNEKSCNCL-OH) showed an IC50 of 1900 nM.
`CC(C)C[C@H](NC(=O)[C@H](CCCNC(N)=O)NC(=O)[C@@H](NC(=O)[C@H](C)NC(=O)[C@H](CO)NC(=O)[C@H](CO)NC(=O)[C@H](CCCNC(N)=O)NC(=O)[C@@H](NC(=O)[C@H](C)NC(=O)[C@H](Cc1ccc(O)cc1)NC(=O)[C@@H](NC(=O)CN)C(C)C)[C@@H](C)O)C(C)C)C(=O)N[C@@H](CCCNC(N)=O)C(=O)N[C@@H](CO)C(=O)N[C@@H](CO)C(=O)N[C@H](C(=O)N1CCC[C@H]1C(=O)NCC(=O)N[C@H](C(=O)N[C@@H](CCCNC(=N)N)C(=O)O)C(C)C)C(C)C` [Cit-Vim 1] (H-GVYAT[Cit]SSAV[Cit]L[Cit]SSVPGVR-OH) gave an IC50 of 1300 nM.
Work on `C[C@H](NC(=O)[C@H](C)NC(=O)[C@H](CCCNC(N)=O)NC(=O)[C@H](C)NC(=O)[C@@H]1CCCN1C(=O)[C@H](CCCNC(N)=O)NC(=O)[C@H](C)NC(=O)[C@H](CCCNC(=N)N)NC(=O)[C@H](Cc1ccc(O)cc1)NC(=O)CN)C(=O)N[C@@H](C)C(=O)N[C@H](C(=O)O)[C@@H](C)O` [Cit-Fib 1] (H-GYRA[Cit]PA[Cit]AAAT-OH) yielded an IC50 of 8200 nM.
Work on `CC(C)C[C@H](NC(=O)[C@H](CO)NC(=O)[C@H](CC(=O)O)NC(=O)[C@H](CC(C)C)NC(=O)[C@H](CC(N)=O)NC(=O)[C@@H](NC(=O)[C@H](CCC(=O)O)NC(=O)[C@H](CCCNC(N)=O)NC(=O)[C@H](CC(C)C)NC(=O)[C@H](CC(N)=O)NC(=O)[C@H](CC(C)C)NC(=O)[C@H](CO)NC(=O)[C@@H](N)CO)[C@@H](C)O)C(=O)O` [Cit-Vim 2] yielded an IC50 of 14000 nM.
`CC[C@H](C)[C@H](NC(=O)[C@H](CCCNC(=N)N)NC(=O)[C@@H](N)CCCCN)C(=O)N[C@@H](C)C(=O)N[C@@H](CCCCN)C(=O)N[C@@H](C)C(=O)N[C@H](C(=O)N[C@@H](CC(N)=O)C(=O)N[C@@H](CCC(=O)O)C(=O)N[C@@H](CCCCN)C(=O)N[C@@H](CO)C(=O)N[C@@H](CS)C(=O)N[C@@H](CC(N)=O)C(=O)N[C@@H](CS)C(=O)N[C@@H](CC(C)C)C(=O)O)C(C)C` [α-enolase 4] (H-KRIAKAVNEKSCNCL-OH) was tested, and the IC50 was 1700 nM.
